From patent US20080063628A1, “METHODS TO PROMOTE CELL DIFFERENTIATION” (priority 2006, published 2008)

Tested on: late passage pancreatic-derived stromal cells
Assay: Chronic trichostatin A treatment, gene expression by RT-PCR (Example 5)
Type: cell-based, human
Experimental: Pancreatic-derived stromal cells were obtained according to the methods described in Example 13. Cells were seeded into a 24-well tissue culture plate at a density of 5000/cm^2 and cultured in DMEM with 10% FBS under standard cell culture conditions until confluent. After the cells reached confluency, sample wells were treated with either 1.25 μM or 2.5 μM trichostatin A diluted in DMSO and medium; control wells received DMSO at an equivalent concentration. At 24 hour intervals over the three day culture period, cultures underwent a complete medium change, and a fresh dilution of trichostatin A or DMSO was added as appropriate. RNA samples were obtained from treated cultures daily after the initial addition of trichostatin A or DMSO. Culture medium was removed, cells were washed with PBS, and RLT lysis buffer with β-mercaptoethanol (Qiagen) was added. RNA was purified using the RNeasy Mini Kit (Qiagen), and RNA quantity and quality was determined using a spectrophotometer. cDNA was made using the iScript cDNA synthesis kit (BioRad).
Expression levels of Sox17, HNF-3 beta, Pdx-1, insulin, and glucagon were determined by RT-PCR. Samples of 20 ng cDNA were used in each reaction, which was performed on the Applied Biosystems 7500, according to the methods described in Example 15. Data were analyzed using the accompanying software. Human pancreas cDNA was included as a control. Results were normalized against GAPDH expression levels.
Real-time PCR amplifcation and quantitative analysis. Unless otherwise stated, all reagents were purchased from Applied Biosystems. Real-time PCR reactions were performed using the ABI PRISM™ 7500 Sequence Detection System. TAQMAN™ FAST UNIVERSAL PCR MASTER MIX™ (ABI, CA) was used with 20 ng of reverse transcribed RNA in a total reaction volume of 20 μl. Each cDNA sample was run in duplicate to allow correction of pipetting errors. Primers and FAM-labeled TAQMAN™ probes were used at concentrations of 200 nM. The level of expression for each target gene was normalized using the pre-developed Applied Biosystem's human glyceraldehyde-3-phosphate dehydrogenase (GAPDH) endogenous control kit. Primers and probes were designed using either ABI PRISM PRIMER EXPRESS™ software or a pre-developed ABI gene analysis kit. For each gene, either one of the primers or the probe were designed to be exon-boundary spanning. This eliminated the possibility of the primers/probe binding to any genomic DNA present. The primer and probe sets are listed as follows: Pdx-1 (Hs00426216), Insulin (Hs00355773), glucagon (Hs00174967), and FoxA2 (HNF 3-beta) (Hs00232764). The remaining primers were designed using the PRIMERS program (ABI, CA). After an initial 95° C. incubation for 20 sec, samples were cycled 40 times in two stages: a denaturation step at 95° C. for 3 sec, followed by an annealing/extension step at 60° C. for 30 sec.
For each primer/probe set, a cycle time value was determined as the cycle number at which the fluorescence intensity of the PCR reaction reached a specific value in the middle of the exponential region of amplification. An increase in expression of a gene corresponded to a decrease in the number of cycles required for the fluorescence intensity to reach this value.

[1] = 1.25 μM renewed daily, 24 hours
[2] = 1.25 μM renewed daily, 48 hours
[3] = 1.25 μM renewed daily, 72 hours

CC(/C=C/C(=O)NO)=C\[C@@H](C)C(=O)c1ccc(N(C)C)cc1 [trichostatin A]
HNF-3 beta gene expression [1]: +++ (detectable at less than 35 cycles by RT-PCR with std error less than 0.9) | Insulin gene expression [1]: nd (not detectable at >40 cycles by RT-PCR) | PDX-1 gene expression [1]: + (detectable between 35 and 40 cycles by RT-PCR) | Sox17 gene expression [1]: +++ (detectable at less than 35 cycles by RT-PCR with std error less than 0.9) | glucagon gene expression [1]: + (detectable between 35 and 40 cycles by RT-PCR) | HNF-3b gene expression [2]: ++ (detectable at less than 35 cycles by RT-PCR with std error greater than 0.9) | Insulin gene expression [2]: nd (not detectable at >40 cycles by RT-PCR) | PDX-1 gene expression [2]: +++ (detectable at less than 35 cycles by RT-PCR with std error less than 0.9) | Sox17 gene expression [2]: +++ (detectable at less than 35 cycles by RT-PCR with std error less than 0.9) | glucagon gene expression [2]: + (detectable between 35 and 40 cycles by RT-PCR) | HNF-3b gene expression [3]: +++ (detectable at less than 35 cycles by RT-PCR with std error less than 0.9) | Insulin gene expression [3]: nd (not detectable at >40 cycles by RT-PCR) | PDX-1 gene expression [3]: +++ (detectable at less than 35 cycles by RT-PCR with std error less than 0.9) | Sox17 gene expression [3]: +++ (detectable at less than 35 cycles by RT-PCR with std error less than 0.9) | glucagon gene expression [3]: + (detectable between 35 and 40 cycles by RT-PCR) | HNF-3 beta gene expression (2.5 μM renewed daily, 24 hours): + (detectable between 35 and 40 cycles by RT-PCR) | Insulin gene expression (2.5 μM renewed daily, 24 hours): nd (not detectable at >40 cycles by RT-PCR) | PDX-1 gene expression (2.5 μM renewed daily, 24 hours): +++ (detectable at less than 35 cycles by RT-PCR with std error less than 0.9) | Sox17 gene expression (2.5 μM renewed daily, 24 hours): +++ (detectable at less than 35 cycles by RT-PCR with std error less than 0.9) | glucagon gene expression (2.5 μM renewed daily, 24 hours): nd (not detectable at >40 cycles by RT-PCR) | HNF-3b gene expression (2.5 μM renewed daily, 48 hours): + (detectable between 35 and 40 cycles by RT-PCR) | Insulin gene expression (2.5 μM renewed daily, 48 hours): nd (not detectable at >40 cycles by RT-PCR) | PDX-1 gene expression (2.5 μM renewed daily, 48 hours): +++ (detectable at less than 35 cycles by RT-PCR with std error less than 0.9) | Sox17 gene expression (2.5 μM renewed daily, 48 hours): +++ (detectable at less than 35 cycles by RT-PCR with std error less than 0.9) | glucagon gene expression (2.5 μM renewed daily, 48 hours): + (detectable between 35 and 40 cycles by RT-PCR) | HNF-3b gene expression (2.5 μM renewed daily, 72 hours): +++ (detectable at less than 35 cycles by RT-PCR with std error less than 0.9) | Insulin gene expression (2.5 μM renewed daily, 72 hours): nd (not detectable at >40 cycles by RT-PCR) | PDX-1 gene expression (2.5 μM renewed daily, 72 hours): + (detectable between 35 and 40 cycles by RT-PCR) | Sox17 gene expression (2.5 μM renewed daily, 72 hours): +++ (detectable at less than 35 cycles by RT-PCR with std error less than 0.9) | glucagon gene expression (2.5 μM renewed daily, 72 hours): nd (not detectable at >40 cycles by RT-PCR)
